The subject of assay [1] is CD4+ T cells (TH1, TH2, TH17, Treg). Put plainly: Fluorescence flow cytometry, polarization/expansion of CD4+ T cell subsets in spleens of EAE mice. Also noted: species or system C57BL/6 mice. The following applies: EAE mice at peak of disease, ex vivo MOG restimulation. On the procedure:
Female C57BL/6 mice of 8-12 weeks of age, purchased from Jackson Laboratory, were provided with food and water ad libitum and were kept in pathogen free animal care facility of Medical University of South Carolina (MUSC) throughout the study. All procedures were conducted in accordance with accepted standards of humane care as approved by the Institutional Animal Care and Use Committee (Approved number: AR #1644). EAE was induced as described previously (Nath et al., 2009). Briefly, mice were immunized subcutaneously in the flank regions with MOG35-55 peptide (MOG; 200 μg; Peptide International) emulsified (1:1) in 100 ul complete Freund's adjuvant (CFA) on day 0 and day 7. Additionally, 300 ng of Pertussis toxin (Sigma-Aldrich, St. Louis, Mo.) was given on day 0 and day 2 by i.p. injection. Pertussis toxin used as per the standardized protocol reported by us and other investigators for the induction of EAE (Nath et al., 2009). Similarly, healthy control group received subcutaneous injection of PBS and CFA emulsion on day 0 and day 7. Clinical signs of EAE were scored by examiners blinded to experimental treatments using the following scale: 0=no clinical signs of disease; 1=piloerection and sluggish; 2=limp tail (ataxia); 2.5=ataxia with partial hind limb paralysis; 3=full paralysis of hind limb; 3.5=full paralysis of hind limb with paralysis of one fore limb; 4=full paralysis of two limbs; 4.5=moribund stage; 5=death. […] The drug treatments were continued till the termination of the study (day 41 post immunization). EAE animals without drug treatment received PBS. Likewise, healthy controls received vehicle.
Fluorescence flow cytometry analysis for each subset of CD4+ T cells (TH1, TH2, TH17, CD4+CD25+ FOXP3+ Treg, and CD4+CD25+ FOXP3− Treg) were performed based on our previous report with modification (Nath et al., 2004). Briefly, control mice, EAE mice. EAE mice treated with GSNO. […] Following the preparation of single cell suspension, red blood cells were lysed with Pharma lyse buffer (BD Pharmingen™) and the remaining spleen cells were washed with RPMI 1640. The isolated CD4+ T cells were then resuspended with complete RPMI-media in 12-well plates (5×10^6 cells' 2 ml per well) containing MOG peptide (25 μg/ml) for 48 hrs. Following the centrifugation, the resulted supernatants were collected for ELISA for CD4+ subset specific cytokines (see below). The cell pellets were washed with cell staining solution (ebioscience, Waltham, Mass. USA) and stained with fluorescence labeled antibody specific to IFN-γ for TH1. IL-4 for TH2, IL-17 for TH17, CD25+ for total Treg. CD25+ and FOXP3+ for FOXP3+ Treg, and CD25+ and FOXP3− for FOXP3-Tregs (ebioscience, Waltham, Mass., USA). The cells were counted and analyzed using Beackman Coulter instrument (Beckman Coulter, Inc., Brea, Calif., USA).
A general note: Flow cytometry measures light scatter and fluorescence of single cells or particles in a stream.

In assay [2] the test system is intracellular Ca^2+ ([Ca^2+]i) influx. Description: Assay for intracellular Ca2+ influx in thrombin treated hBMVECs. It is filed as cell-based, human. The following applies: thrombin 0.1 unit/ml; L-NIO or FeTPPS 10 μM; GSNO or SIN-1 various concentrations. As for the experimental part: Cell culture: Primary human brain microvascular endothelial cells (hBMVECs) were purchased from Angio-Proteomie (Cat #: cAP-0002, Atlanta, Ga.). The cells were cultured in cell culture flasks or plates precoated with Quick Coating Solution (Angio-Proteomie; Cat #: cAP-01) and maintained in Endothelial Growth Medium (Angio-Proteomie; Cat #: cAP-02) at 37° C. under 5% CO2/95% air. When the cells were almost confluent, the medium was replaced with endothelial basal medium (Angio-Proteomie; Cat #: cAP-03) containing 0.5% fetal bovine serum (FBS; Life Technologies, Grand Island, N.Y.) about 8-12 hours before the experiment. No institutional approval was required for this study. The study was not pre-registered. Intracellular Ca^2+ concentration ([Ca^2+]i) was measured with Fluo-4 Direct Calcium Assay Kit (Thermo Fisher Scientific, Cat #: F10471, Grand Island, N.Y.). Briefly, culture medium in the 96-well plate was replaced with a Ca^2+ sensitive dye Fluo-4 in an endothelial basal medium. After 30 min incubation, the dye was removed and cells were incubated with the original medium with or without the drugs at 37° C. for 15 min. Following thrombin treatment, time course changes of fluorescent intensity were quantified using a CLARIOstar multi-well fluorometer (BMG Labtech, Cary, N.C.).

For another assay, the system named is BBB leakage. Put plainly: BBB disruption by Evans blue extravasation in CCI rat model of TBI. The class given is in vivo, Sprague Dawley rats. The following applies: 24 hr after TBI; GSNO 0.05 mg/kg i.v. or FeTPPS 3 mg/kg i.v. right after impact. An excerpt:
All animals used in this study received humane care in compliance with the Medical University of South Carolina's (MUSC) guidance and the National Research Council's criteria for humane care. Animal procedures were approved by the institutional animal care and use committee of MUSC (AR #2703). For generation of CCI model of TBI, young adult male (˜3-4 months old) Sprague Dawley rats weighing between 260-300 g were randomly divided into four groups: 1) TBI animals treated with vehicle (TBI; n=13), 2) TBI with GSNO (0.05 mg/kg body weight/i.v.) treatment (TBI+GSNO; n=13), 3) TBI with FeTPPS (3 mg/kg body weight, i.v.) treatment (TBI+FeTPPS; n=13), 4) sham-operated treated with vehicle (Sham; n=13). The group size was determined by power analysis based on our previous data (Khan et al., 2016b; Khan et al., 2009). Ketamine (90 mg/kg body weight) and xylazine (10 mg/kg body weight) as surgical anesthesia were administered intraperitoneally. Analgesic buprenorphine was administered pre-emptively to alleviate pain following surgery. […]
BBB leakage was assessed as previously described from our laboratory (Khan et al., 2016b; Khan et al., 2009). […] The brain tissues were homogenized in 750 μl of N, N-dimethylformamide (DMF) and centrifuged at 10,000×g for 25 minutes, and EB content in supernatant was fluorimetrically analyzed (λex 620 nm, λem 680 nm).

As to `Cc1cc(C(N)=O)ccc1-n1c(CCC(=O)O)ccc1-c1ccc(-n2ccnc2)cc1` [N6022, reference compound], in assay [1], the “TH2 polarization/expansion in spleens” value is listed as “fully restored”, the “polarization/expansion of CD4+CD25+ FOXP3+ Treg cells in spleens” value is “restored”, the “polarization/expansion of CD4+CD25+ FOXP3− Treg cells in spleens” value was “increased” and the “polarization/expansion of TH1 cells in spleens” value is “reduced”. Further, the “polarization/expansion of TH17 cells in spleens” value in assay [1] is reported as “reduced”.

In the case of `N[C@@H](CCC(=O)N[C@@H](CSN=O)C(=O)NCC(=O)O)C(=O)O` [GSNO, S-nitrosoglutathione], in assay [2], the “thrombin-induced intracellular Ca2+ influx” value is “inhibited”. In assay [1], the “polarization/expansion of CD4+CD25+ FOXP3+ Treg cells in spleens” value was “without altering”, the “polarization/expansion of CD4+CD25+ FOXP3− Treg cells in spleens” value is on record as “significantly increased”, the “polarization/expansion of TH1 cells in spleens” value was “no obvious effect” and the “polarization/expansion of TH17 cells in spleens” value is on record as “significantly decreased”. Moreover, the “polarization/expansion of total Treg cells (CD4+CD25+) in spleens” value in assay [1] is on record as “increased”. Also, the “TBI-induced increase in Evan's blue extravasation” value in the assay on BBB leakage is “reduced”.

Regarding `Cl.O=S(=O)([O-])c1ccc(-c2c3nc(c(-c4ccc(S(=O)(=O)O)cc4)c4ccc([nH]4)c(-c4ccc(S(=O)(=O)O)cc4)c4nc(c(-c5ccc(S(=O)(=O)O)cc5)c5ccc2[nH]5)C=C4)C=C3)cc1.[Fe]` [FeTPPS, 5,10,15,20-Tetrakis(4-sulfonatophenyl)porphyrinato Iron (III), Cl, reference compound], in assay [2], the “thrombin-induced intracellular Ca2+ influx” value was “had not effect”. In addition, the “TBI-induced increase in Evan's blue extravasation” value in the assay with BBB leakage is reported as “reduced”.

Source of the values: patent US10925858B2, “S-nitrosoglutathione (GSNO) and GSNO reductase inhibitors for use in therapy” (MUSC FOUNDATION FOR RESEARCH DEVELOPMENT, priority 2017, dated 2021).
